Laboratory results published in PubChem BioAssay AID2060333 (Molecular Pharmacology Branch, DTP, NCI, 2025).

System: 845751-090-R-J2-PDC tumor spheroid viability
Assay: Anticancer human tumor 845751-090-R-J2-PDC patient-derived head and neck squamous carcinoma cell line growth inhibition [IpAb]
Conditions: spheroids with HUVEC and MSC; for IC50: curve of first compound; for viability, T/C: stronger effect = lower value
Outline: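 Multi-cell spheroids of 60% tumour cells, 25% HUVEC and 15% MSC in ultra-low-attachment U-bottom wells, treated with agents combined with ipatasertib or abemaciclib. Half-log ranges top out near clinical Cmax, or 10 microM when Cmax is unknown.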

[1] = second compound 0.1 µM, first compound 0.0316 µM
[2] = second compound 0.1 µM, first compound 0.1 µM
[3] = second compound 0.1 µM, first compound 0.316 µM
[4] = second compound 0.1 µM, first compound 1 µM
[5] = second compound 0.1 µM, first compound 3.16 µM
[6] = second compound 0.1 µM, first compound 10 µM
[7] = second compound 0.316 µM, first compound 0.0316 µM
[8] = second compound 0.316 µM, first compound 0.1 µM
[9] = second compound 0.316 µM, first compound 0.316 µM
[10] = second compound 0.316 µM, first compound 1 µM
[11] = second compound 0.316 µM, first compound 3.16 µM
[12] = second compound 0.316 µM, first compound 10 µM
[13] = second compound 1 µM, first compound 0.0316 µM
[14] = second compound 1 µM, first compound 0.1 µM
[15] = second compound 1 µM, first compound 0.316 µM
[16] = second compound 1 µM, first compound 1 µM
[17] = second compound 1 µM, first compound 3.16 µM
[18] = second compound 1 µM, first compound 10 µM
[19] = second compound 0.01 µM, first compound 0.0316 µM
[20] = second compound 0.01 µM, first compound 0.1 µM
[21] = second compound 0.0316 µM, first compound 0.0316 µM
[22] = second compound 0.0316 µM, first compound 0.1 µM
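Further: spheroids exposed to compounds for 7 days before readout.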
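Wherever viability, T/C is given: CTG3D luminescence normalised so that 100% = DMSO vehicle control.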

Q: Which results are given for CCCS(=O)(=O)Nc1ccc(F)c(C(=O)c2c[nH]c3ncc(-c4ccc(Cl)cc4)cc23)c1F + CC(C)NCC(C(=O)N1CCN(c2ncnc3c2C(C)CC3O)CC1)c1ccc(Cl)cc1?
A: IC50 (second compound 0.1 µM): > 10000 nM; IC50 (second compound 0.316 µM): 126 nM; IC50 (second compound 1 µM): < 31.6 nM; IC50 (second compound 3.16 µM): < 31.6 nM; IC50 (second compound 10 µM): < 31.6 nM; viability, T/C [1]: 74.3%; viability, T/C [2]: 75.2%; viability, T/C [3]: 63%; viability, T/C [4]: 61.6%; viability, T/C [5]: 49%; viability, T/C [6]: 53.4%; viability, T/C [7]: 47.2%; viability, T/C [8]: 52.1%; viability, T/C [9]: 46.1%; viability, T/C [10]: 55.4%; viability, T/C [11]: 56.7%; viability, T/C [12]: 38.8%; viability, T/C [13]: 46.5%; viability, T/C [14]: 45.9%; viability, T/C [15]: 37.6%; viability, T/C [16]: 31.2%; viability, T/C [17]: 42.5%; viability, T/C [18]: 24.8%; viability, T/C (second compound 3.16 µM, first compound 0.0316 µM): 41.9%; viability, T/C (second compound 3.16 µM, first compound 0.1 µM): 42.6%; viability, T/C (second compound 3.16 µM, first compound 0.316 µM): 29%; viability, T/C (second compound 3.16 µM, first compound 1 µM): 26.5%; viability, T/C (second compound 3.16 µM, first compound 3.16 µM): 32%; viability, T/C (second compound 3.16 µM, first compound 10 µM): 16.3%; viability, T/C (second compound 10 µM, first compound 0.0316 µM): 18.7%; viability, T/C (second compound 10 µM, first compound 0.1 µM): 17.2%; viability, T/C (second compound 10 µM, first compound 0.316 µM): 19.6%; viability, T/C (second compound 10 µM, first compound 1 µM): 14.7%; viability, T/C (second compound 10 µM, first compound 3.16 µM): 15.7%; viability, T/C (second compound 10 µM, first compound 10 µM): 7.71%

Q: What does the source list for Cn1nccc1Nc1nccc(-c2ccn(C(CO)c3ccc(Cl)c(F)c3)c(=O)c2)n1 (stereo not given) + CCN1CCN(Cc2ccc(Nc3ncc(F)c(-c4cc(F)c5nc(C)n(C(C)C)c5c4)n3)nc2)CC1?
A: IC50 (second compound 0.01 µM): > 10000 nM; IC50 (second compound 0.0316 µM): > 10000 nM; IC50 (second compound 0.1 µM): > 10000 nM; IC50 (second compound 0.316 µM): > 10000 nM; IC50 (second compound 1 µM): > 10000 nM; viability, T/C [19]: 185%; viability, T/C [20]: 202%; viability, T/C (second compound 0.01 µM, first compound 0.316 µM): 192%; viability, T/C (second compound 0.01 µM, first compound 1 µM): 227%; viability, T/C (second compound 0.01 µM, first compound 3.16 µM): 198%; viability, T/C (second compound 0.01 µM, first compound 10 µM): 135%; viability, T/C [21]: 143%; viability, T/C [22]: 191%; viability, T/C (second compound 0.0316 µM, first compound 0.316 µM): 216%; viability, T/C (second compound 0.0316 µM, first compound 1 µM): 211%; viability, T/C (second compound 0.0316 µM, first compound 3.16 µM): 169%; viability, T/C (second compound 0.0316 µM, first compound 10 µM): 133%; viability, T/C [1]: 154%; viability, T/C [2]: 190%; viability, T/C [3]: 181%; viability, T/C [4]: 204%; viability, T/C [5]: 185%; viability, T/C [6]: 132%; viability, T/C [7]: 156%; viability, T/C [8]: 178%; viability, T/C [9]: 210%; viability, T/C [10]: 204%; viability, T/C [11]: 174%; viability, T/C [12]: 106%; viability, T/C [13]: 161%; viability, T/C [14]: 211%; viability, T/C [15]: 224%; viability, T/C [16]: 215%; viability, T/C [17]: 171%; viability, T/C [18]: 86.3%

Q: Which results are given for CC(C)n1nc(-c2ccc3oc(N)nc3c2)c2c(N)ncnc21 + CCN1CCN(Cc2ccc(Nc3ncc(F)c(-c4cc(F)c5nc(C)n(C(C)C)c5c4)n3)nc2)CC1?
A: IC50 (second compound 0.01 µM): 1.1 nM; IC50 (second compound 0.0316 µM): 3.84 nM; IC50 (second compound 0.1 µM): 2.92 nM; IC50 (second compound 0.316 µM): 2.75 nM; IC50 (second compound 1 µM): 12.3 nM; viability, T/C (second compound 0.01 µM, first compound 0.000316 µM): 72.6%; viability, T/C (second compound 0.01 µM, first compound 0.001 µM): 47.8%; viability, T/C (second compound 0.01 µM, first compound 0.00316 µM): 39.2%; viability, T/C (second compound 0.01 µM, first compound 0.01 µM): 33%; viability, T/C [19]: 26.8%; viability, T/C [20]: 21.1%; viability, T/C (second compound 0.0316 µM, first compound 0.000316 µM): 66.7%; viability, T/C (second compound 0.0316 µM, first compound 0.001 µM): 68.2%; viability, T/C (second compound 0.0316 µM, first compound 0.00316 µM): 54.3%; viability, T/C (second compound 0.0316 µM, first compound 0.01 µM): 28.1%; viability, T/C [21]: 26.6%; viability, T/C [22]: 23.5%; viability, T/C (second compound 0.1 µM, first compound 0.000316 µM): 62.6%; viability, T/C (second compound 0.1 µM, first compound 0.001 µM): 50.2%; viability, T/C (second compound 0.1 µM, first compound 0.00316 µM): 52.2%; viability, T/C (second compound 0.1 µM, first compound 0.01 µM): 30.3%; viability, T/C [1]: 25.7%; viability, T/C [2]: 20.6%; viability, T/C (second compound 0.316 µM, first compound 0.000316 µM): 47.5%; viability, T/C (second compound 0.316 µM, first compound 0.001 µM): 56.6%; viability, T/C (second compound 0.316 µM, first compound 0.00316 µM): 49.6%; viability, T/C (second compound 0.316 µM, first compound 0.01 µM): 33.4%; viability, T/C [7]: 32.7%; viability, T/C [8]: 30.2%; viability, T/C (second compound 1 µM, first compound 0.000316 µM): 56.7%; viability, T/C (second compound 1 µM, first compound 0.001 µM): 74%; viability, T/C (second compound 1 µM, first compound 0.00316 µM): 57.7%; viability, T/C (second compound 1 µM, first compound 0.01 µM): 49%; viability, T/C [13]: 45.5%; viability, T/C [14]: 34.7%
